Measured values: patent US7863453B2, “Tartrate salt of isofagomine and methods of use” (Amicus Therapeutics, Inc., priority 2006, dated 2011)
“And” between values parts separate entries of the source, which are not always exact repeats. Identical values can stand only once. Counter-ions that a name gives are not always drawn. Like-named read-outs stand apart in the source and are kept apart here.

Tests used:
[1] = Moisture uptake studies (saturated salt solutions); type: physicochemical; conditions: for Weight gain (%): single samples; for Average weight gain (%): average of 3 samples
Description: The moisture uptake test results of six different isofagomine tartrate samples prepared according to present invention are summarized in Tables 4 and 5.

[2] = Phase I clinical studies in healthy volunteers, safety; type: in vivo, human
Procedure: (§1) Isofagomine tartrate is a pharmacological chaperone in development for the treatment of the lysosomal storage disorder Gaucher disease. Using cell-based and animal models we have shown that isofagomine increases cellular levels of glucocerebrosidase (GCase), the enzyme deficient in Gaucher disease. Randomized double-blind Phase I clinical studies were performed in 72 healthy volunteers, (39 male, 33 female). Isofagomine tartrate was orally administered as an aqueous solution. In a first-in-human single ascending dose study, doses of 8, 25, 75, 150 (two cohorts), and 300 mg were administered (6 active, 2 placebo in each cohort). In a multiple ascending dose study, doses of 25, 75, and 225 mg were administered daily for seven days (6 active, 2 placebo in each cohort).

GCase = target: T1, GCase (Homo sapiens, UniProt P04062); assay: Phase I multiple-dose study, GCase activity in isolated white blood cells; type: in vivo
T1 construct: endogenous in cells; host or cells: isolated white blood cells of healthy volunteers dosed orally
T1 sequence (P04062 40-536): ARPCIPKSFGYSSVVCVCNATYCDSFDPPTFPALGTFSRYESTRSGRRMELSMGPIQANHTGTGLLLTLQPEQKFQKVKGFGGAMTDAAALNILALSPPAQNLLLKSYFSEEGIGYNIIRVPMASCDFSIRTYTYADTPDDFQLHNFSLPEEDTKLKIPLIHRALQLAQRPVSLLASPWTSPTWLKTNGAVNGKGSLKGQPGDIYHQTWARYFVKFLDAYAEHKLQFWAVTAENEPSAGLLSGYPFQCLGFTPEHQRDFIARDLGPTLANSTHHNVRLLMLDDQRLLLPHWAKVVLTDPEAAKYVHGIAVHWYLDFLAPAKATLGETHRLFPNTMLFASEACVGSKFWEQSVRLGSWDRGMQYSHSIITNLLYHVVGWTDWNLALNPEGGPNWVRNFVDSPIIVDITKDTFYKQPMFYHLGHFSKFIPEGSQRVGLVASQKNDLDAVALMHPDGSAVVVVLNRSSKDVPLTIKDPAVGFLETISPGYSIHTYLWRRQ
Procedure: as §1
In the multiple-dose study, GCase activity in isolated white blood cells was measured at days 1, 3, 5 and 7 during administration of isofagomine tartrate, and at days 9, 14 and 21 during the post-treatment washout period. […] The increase in enzyme level was dose-related, reaching approximately 3.5-fold above baseline levels.

[3] = Phase I multiple ascending dose study, pharmacokinetics; type: in vivo, human; conditions: after 7 days of oral administration
Procedure: as §1
(§2) Mean plasma levels peaked at 3.4 hr. […] (SEM: 2 hr.).

mutant GCase = assay: Ex vivo response study, GCase levels in macrophages derived from Gaucher patients; type: cell-based, human
Procedure: The intracellular enhancement activity of isofagomine L-(+)-tartrate was investigated with fibroblasts established from Gaucher patients. To evaluate the effects of IFG on mutant GCase levels, an ex vivo response study with macrophages and EBV-transformed lymphoblasts derived from peripheral leukocytes of 40 patients was conducted.
The study included 21 males with type I Gaucher disease, 1 person with type III Gaucher disease, and 18 females with type I Gaucher disease. Patients ranged in age from 7 to 83 years, and 38 of 40 patients were on enzyme replacement therapy (ERT).

[4] = Phase I single ascending dose study, pharmacokinetics; type: in vivo, human
Procedure: as §1, §2

[5] = Powder characteristics (density, flowability); type: physicochemical
Description: Meanwhile, isofagomine tartrate according to the present invention has good powder characteristics, e.g., crystal size, density, and flowability, that are suitable for a pharmaceutical manufacturing process. Tables 2 and 3 summarize powder characteristics of an isofagomine tartrate sample prepared according to the present invention. […] Most batches provided more than 98%, or at minimum 90%, of isofagomine tartrate with a particle size of about 1200 μm or less.

[6] = animals, background statement; cited from earlier work
[7] = target: T2, recombinant human acid β-glucosidase (GCase) (Homo sapiens, UniProt P04062); conditions: background statement; cited from earlier work
T2 sequence (P04062 40-536): T1 sequence (P04062 40-536)

## OC[C@H]1CNC[C@@H](O)[C@@H]1O [isofagomine tartrate, Isofagomine tartrate]
[1]
  hygroscopicity: not hygroscopic
[1]; NaBr saturated solution, 24 hours, RH 59%, 20.5 °C
  Weight gain (%): 0.06% and 0.00% and 0.05%
[1]; NaBr saturated solution, 24 hours, RH 59%
  Average weight gain (%): 0.04%
[1]; NaBr saturated solution, 48 hours, RH 59%, 20.8 °C
  Weight gain (%): 0.04% and 0.02% and 0.10%
[1]; NaBr saturated solution, 48 hours, RH 59%
  Average weight gain (%): 0.05%
[1]; NaBr saturated solution, 8 days, RH 59%, 20.2 °C
  Weight gain (%): 0.06% and 0.07% and 0.10%
[1]; NaBr saturated solution, 8 days, RH 59%
  Average weight gain (%): 0.08%
[1]; NaCl saturated solution, 24 hours, RH 72%, 20.5 °C
  Weight gain (%): 0.02% and 0.00% and 0.08%
[1]; NaCl saturated solution, 24 hours, RH 72%
  Average weight gain (%): 0.04%
[1]; NaCl saturated solution, 48 hours, RH 71%, 20.8 °C
  Weight gain (%): 0.05% and 0.00% and 0.8%
[1]; NaCl saturated solution, 48 hours, RH 71%
  Average weight gain (%): 0.05%
[1]; NaCl saturated solution, 8 days, RH 72%, 20.2 °C
  Weight gain (%): 0.10% and 0.00% and 0.15%
[1]; NaCl saturated solution, 8 days, RH 72%
  Average weight gain (%): 0.08%
[1]; after exposure to 75% RH for 8 days
  moisture uptake: about 0.08%
[2]; both studies
  serious adverse events: No serious adverse events occurred
  treatment-emergent adverse events: mostly mild
[2]; healthy volunteers, oral aqueous solution, single 8-300 mg and 25-225 mg daily for seven days
  tolerability: generally well tolerated at all doses
GCase; isolated white blood cells, healthy volunteers, 25-225 mg daily for seven days, dose-related, maximum reached
  increase in GCase level above baseline: approximately 3.5 fold
GCase; post-treatment washout period
  GCase levels after removal of the drug: return to near baseline levels by day 21
[3]
  pharmacokinetic behavior versus dose: linear with dose
Mutant GCase; macrophages from Gaucher patients, 32 of 34 responding, treated 5 days, dose-dependent
  increase in GCase levels (average): 2.8 fold
[4]; both sexes, human, plasma, single-dose study, oral, SEM 0.6 hr, read-out: time at which mean plasma levels peaked (Tmax)
  Tmax: 3.4 h
[4]; both sexes, human, plasma, single-dose study, oral, SEM 2 hr, read-out: plasma elimination half-life (converted)
  half-life: 840 min
[4]; healthy volunteers
  systemic exposure via the oral route: good systemic exposure
[4]; single-dose study, 8-300 mg
  plasma AUC and Cmax versus dose: linearly correlated with administered dose
[5]
  Bulk Density: 0.44 g/mL
  Carr Index: 15%
  Tap Density: 0.52 g/mL
[5]; listed as Isofagomine tartrate
  Bulk Density: around 0.44 g/ml
  Carr Index: 15%

## OC[C@H]1CNC[C@@H](O)[C@@H]1O [isofagomine, (3R,4R,5R)-5-(hydroxymethyl)-3,4-piperidinediol]
[6]
  blood-brain barrier crossing: cross the blood-brain barrier
[7]
  inhibition of GCase: potent inhibitor
[3]
  accumulation: no unexpected accumulation
Mutant GCase; N370S/N370S, N370S/L444P, N370S/84insG, N370S/R163X, N370S/Y212H, L444P/del 136T, L444P/F216Y, L444P/L174F, G202R/R463C, K79N/complex B exon 9/10
  effect on GCase levels in cells from patients with different genotypes: significantly increased GCase levels
Mutant GCase; macrophages
  concentration at maximum enhancement of GCase: about 30 μM
